# Source: ChEMBL document CHEMBL6114982, “Structural optimization and characterization of highly potent and selective STAT3 inhibitors for the treatment of triple negative breast cancer” (Eur J Med Chem, 2025)
# Activity calls are given as the source filed them. The calls are words filed in the database; no cut-off is given here.
# Experiments:
# MDA-MB-231 [1] = experiment: Effect on STAT3 expression in human MDA-MB-231 cells at 0.1 microM measured after 8 to 48 hrs by Western blot analysis; type: functional, cell-based; conditions: time 8-48 hrs
# [2] = target: T1, Signal transducer and activator of transcription 3 (Homo sapiens, UniProt P40763); experiment: Inhibition of STAT3 phosphorylation in human MDA-MB-231 cells assessed as upregulation of UBE2S expression level; type: cell-based
# T1 sequence (P40763 whole entry): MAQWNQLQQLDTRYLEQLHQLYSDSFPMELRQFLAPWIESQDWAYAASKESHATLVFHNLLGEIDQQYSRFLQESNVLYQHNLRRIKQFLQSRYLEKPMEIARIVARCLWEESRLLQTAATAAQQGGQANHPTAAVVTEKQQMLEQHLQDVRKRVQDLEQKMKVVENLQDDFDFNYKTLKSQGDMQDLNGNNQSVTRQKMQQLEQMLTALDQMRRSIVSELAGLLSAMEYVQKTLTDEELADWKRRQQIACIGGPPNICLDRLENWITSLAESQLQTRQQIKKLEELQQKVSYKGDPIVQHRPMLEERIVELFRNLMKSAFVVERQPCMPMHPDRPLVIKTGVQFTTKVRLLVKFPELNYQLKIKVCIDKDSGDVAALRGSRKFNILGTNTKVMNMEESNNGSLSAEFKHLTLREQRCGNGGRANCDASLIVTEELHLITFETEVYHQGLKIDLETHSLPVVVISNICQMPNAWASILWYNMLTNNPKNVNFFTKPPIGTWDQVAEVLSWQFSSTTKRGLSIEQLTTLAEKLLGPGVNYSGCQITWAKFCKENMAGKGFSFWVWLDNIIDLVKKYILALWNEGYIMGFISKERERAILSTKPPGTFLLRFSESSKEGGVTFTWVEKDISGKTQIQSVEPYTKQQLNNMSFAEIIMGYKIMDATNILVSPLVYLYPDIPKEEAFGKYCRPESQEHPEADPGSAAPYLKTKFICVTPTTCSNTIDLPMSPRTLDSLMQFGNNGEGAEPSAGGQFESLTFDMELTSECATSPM
# [3] = target: T1, Signal transducer and activator of transcription 3; experiment: Inhibition of STAT3 phosphorylation at Tyr705 residue at Tyr705 residue in human MDA-MB-231 cells measured after 8 to 48 hrs by Western blot analysis; type: cell-based; conditions: dose 0.1 µM, time 8-48 hrs
# [4] = target: T1, Signal transducer and activator of transcription 3; experiment: Inhibition of STAT3 phosphorylation in human MDA-MB-231 cells assessed as downregulation of KRT10 expression level; type: cell-based
# BT-549 [5] = experiment: Downregulation of cyclin D1 level in human BT-549 cells measured after 48 hrs by Western blot analysis; type: functional, cell-based; conditions: dose 0.05-0.5 µM
# BT-549 [6] = experiment: Inhibition of cell migration in human BT-549 cells assessed as reduction in wound closure proportion at 0.05 to 0.5 uM incubated for 24 hrs by inverted microscopic analysis; type: functional, cell-based; conditions: dose 0.05-0.5 µM
# [7] = target: Epidermal growth factor receptor (Homo sapiens) (UniProt P00533); experiment: Inhibition of EGFR (unknown origin) at upto 10 uM
# Chain of Epidermal growth factor receptor (Homo sapiens) (P00533 whole entry): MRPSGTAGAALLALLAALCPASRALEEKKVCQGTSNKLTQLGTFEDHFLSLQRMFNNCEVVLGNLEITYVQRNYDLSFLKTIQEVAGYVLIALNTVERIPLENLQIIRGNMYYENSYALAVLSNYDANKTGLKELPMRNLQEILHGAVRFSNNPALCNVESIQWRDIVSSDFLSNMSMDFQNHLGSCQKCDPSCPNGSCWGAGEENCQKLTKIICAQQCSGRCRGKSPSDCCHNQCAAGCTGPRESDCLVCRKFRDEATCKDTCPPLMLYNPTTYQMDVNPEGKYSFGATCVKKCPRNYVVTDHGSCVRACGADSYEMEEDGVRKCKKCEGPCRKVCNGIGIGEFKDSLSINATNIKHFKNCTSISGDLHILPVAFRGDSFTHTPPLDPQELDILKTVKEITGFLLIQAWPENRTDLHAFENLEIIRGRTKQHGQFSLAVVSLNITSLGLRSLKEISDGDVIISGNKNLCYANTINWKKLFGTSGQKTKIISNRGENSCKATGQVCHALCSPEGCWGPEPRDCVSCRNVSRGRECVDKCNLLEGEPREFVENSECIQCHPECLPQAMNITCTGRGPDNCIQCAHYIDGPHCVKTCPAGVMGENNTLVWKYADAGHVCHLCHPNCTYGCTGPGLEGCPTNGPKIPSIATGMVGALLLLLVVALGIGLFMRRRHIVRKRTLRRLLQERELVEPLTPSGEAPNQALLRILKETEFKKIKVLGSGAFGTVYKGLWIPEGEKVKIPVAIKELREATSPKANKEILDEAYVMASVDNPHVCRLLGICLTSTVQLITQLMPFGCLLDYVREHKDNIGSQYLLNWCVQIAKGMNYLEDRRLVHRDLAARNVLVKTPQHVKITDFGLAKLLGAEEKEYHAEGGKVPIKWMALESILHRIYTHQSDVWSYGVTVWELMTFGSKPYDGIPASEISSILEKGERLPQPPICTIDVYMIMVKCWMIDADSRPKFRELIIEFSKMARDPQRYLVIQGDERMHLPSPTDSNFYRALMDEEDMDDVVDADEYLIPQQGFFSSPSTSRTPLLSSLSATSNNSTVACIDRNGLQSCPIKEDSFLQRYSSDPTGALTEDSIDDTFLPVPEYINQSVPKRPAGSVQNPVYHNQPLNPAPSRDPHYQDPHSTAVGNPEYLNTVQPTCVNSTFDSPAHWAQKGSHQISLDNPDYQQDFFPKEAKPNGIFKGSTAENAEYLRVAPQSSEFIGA
# [8] = target: T1, Signal transducer and activator of transcription 3; experiment: Inhibition of STAT3 in human MDA-MB-231 cells assessed as downregulation of SPRY1 level; type: cell-based
# [9] = target: Tyrosine-protein kinase JAK1 (Homo sapiens) (UniProt P23458); experiment: Inhibition of JAK1 (unknown origin) at upto 10 uM
# Chain of Tyrosine-protein kinase JAK1 (Homo sapiens) (P23458 whole entry): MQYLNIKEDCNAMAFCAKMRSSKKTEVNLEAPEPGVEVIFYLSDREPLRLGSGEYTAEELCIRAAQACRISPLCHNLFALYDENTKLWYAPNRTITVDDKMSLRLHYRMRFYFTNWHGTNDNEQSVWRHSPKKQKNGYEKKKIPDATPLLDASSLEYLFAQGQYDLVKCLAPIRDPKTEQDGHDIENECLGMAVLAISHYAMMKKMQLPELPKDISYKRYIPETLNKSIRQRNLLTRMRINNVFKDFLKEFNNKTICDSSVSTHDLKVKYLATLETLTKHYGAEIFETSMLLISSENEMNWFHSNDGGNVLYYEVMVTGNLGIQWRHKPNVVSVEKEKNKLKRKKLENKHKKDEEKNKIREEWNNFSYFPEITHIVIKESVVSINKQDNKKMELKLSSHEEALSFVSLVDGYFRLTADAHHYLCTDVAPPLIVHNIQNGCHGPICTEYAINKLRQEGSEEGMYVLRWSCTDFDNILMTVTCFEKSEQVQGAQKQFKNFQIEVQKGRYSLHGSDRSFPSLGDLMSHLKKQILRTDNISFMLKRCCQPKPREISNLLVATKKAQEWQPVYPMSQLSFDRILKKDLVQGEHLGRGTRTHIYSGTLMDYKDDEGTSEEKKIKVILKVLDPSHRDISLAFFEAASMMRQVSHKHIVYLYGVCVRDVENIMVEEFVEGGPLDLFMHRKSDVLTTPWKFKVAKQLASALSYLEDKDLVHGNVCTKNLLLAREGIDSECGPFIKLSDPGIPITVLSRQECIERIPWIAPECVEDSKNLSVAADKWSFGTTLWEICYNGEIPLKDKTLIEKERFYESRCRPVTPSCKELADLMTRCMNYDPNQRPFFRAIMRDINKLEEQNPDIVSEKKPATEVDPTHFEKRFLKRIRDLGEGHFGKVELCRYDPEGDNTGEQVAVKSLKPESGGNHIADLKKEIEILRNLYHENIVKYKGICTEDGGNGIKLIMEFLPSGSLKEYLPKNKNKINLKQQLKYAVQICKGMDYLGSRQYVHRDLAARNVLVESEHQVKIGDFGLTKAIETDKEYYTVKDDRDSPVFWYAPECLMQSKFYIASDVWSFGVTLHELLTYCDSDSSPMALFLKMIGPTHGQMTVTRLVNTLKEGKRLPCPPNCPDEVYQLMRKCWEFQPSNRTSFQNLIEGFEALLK
# MDA-MB-231 [10] = experiment: Effect on STAT1 phosphorylation level in human MDA-MB-231 cells at 0.05 to 0.5 uM measured after 48 hrs by Western blot analysis; type: functional, cell-based; conditions: dose 0.05-0.5 µM
# [11] = Toxicity in female BALB/c nude mouse assessed as effect on kidney at 10 to 20 mg/kg, iv measured after 30 days by H and E staining based analysis; type: organism-based; conditions: in vivo, 720 h, dose 10-20 mg/kg, time 30 day
# MDA-MB-231 [12] = experiment: Inhibition of colony formation in human MDA-MB-231 cells at low concentration measured after 14 days by crystal violet staining based analysis; type: functional, cell-based; conditions: time 14.0 day
# [13] = target: T1, Signal transducer and activator of transcription 3; experiment: Inhibition of STAT3 in human MDA-MB-231 cells assessed as downregulation of CCNB1 level; type: cell-based
# MDA-MB-231 [14] = experiment: Induction of apoptosis in human MDA-MB-231 cells incubated for 48 hrs by Annexin V and PI staining based flow cytometry analysis; type: functional, cell-based; conditions: dose 0.05-0.5 µM
# [15] = Toxicity in female BALB/c nude mouse assessed as effect on heart at 10 to 20 mg/kg, iv measured after 30 days by H and E staining based analysis; type: organism-based; conditions: in vivo, 720 h, dose 10-20 mg/kg, time 30 day
# BT-549 [16] = experiment: Inhibition of colony formation in human BT-549 cells at low concentration measured after 14 days by crystal violet staining based analysis; type: functional, cell-based; conditions: time 14.0 day
# [17] = Toxicity in female BALB/c nude mouse assessed as effect on lung at 10 to 20 mg/kg, iv measured after 30 days by H and E staining based analysis; type: organism-based; conditions: in vivo, 720 h, dose 10-20 mg/kg, time 30 day
# MDA-MB-231 [18] = experiment: Downregulation of Bcl-xl level in human MDA-MB-231 cells measured after 48 hrs by Western blot analysis; type: functional, cell-based; conditions: dose 0.05-0.5 µM
# [19] = Toxicity in female BALB/c nude mouse assessed as drug tolerance at 10 to 20 mg/kg, iv measured after 30 days; type: organism-based; conditions: in vivo, 720 h, dose 10-20 mg/kg, time 30 day
# [20] = target: T1, Signal transducer and activator of transcription 3; experiment: Inhibition of STAT3 phosphorylation at Tyr705 residue in human MDA-MB-231 cells at 0.1 uM by Western blot analysis; type: cell-based; conditions: time 8-48 hrs
# MDA-MB-231 [21] = experiment: Effect on ERK12 phosphorylation level in human MDA-MB-231 cells at 0.05 to 0.5 uM measured after 48 hrs by Western blot analysis; type: functional, cell-based; conditions: dose 0.05-0.5 µM
# [22] = target: T1, Signal transducer and activator of transcription 3; experiment: Inhibition of STAT3 phosphorylation at Tyr705 residue in human BT-549 cells at 0.1 uM by Western blot analysis; type: cell-based; conditions: time 8-48 hrs
# MDA-MB-231 [23] = experiment: Downregulation of Bcl-2 level in human MDA-MB-231 cells measured after 48 hrs by Western blot analysis; type: functional, cell-based; conditions: dose 0.05-0.5 µM
# BT-549 [24] = experiment: Inhibition of colony formation in human BT-549 cells measured after 14 days by crystal violet staining based analysis; type: functional, cell-based; conditions: dose 0.1-0.5 µM, time 14.0 day
smiles,measurement,setting,value
COc1cccc(C(=O)Nc2sc3c(c2C#N)CCN(C(=O)Nc2ccccc2OC)C3)c1,Activity,MDA-MB-231 [1],Active; Compound Showed Little Impact On Stat3 Expression
same,inhibition,[2],Active
same,inhibition,[3],Dose-dependent-effect
same,inhibition,[4],Active
same,Activity,BT-549 [5],Dose-dependent-effect
same,inhibition,BT-549 [6],Active
same,inhibition,[7],Active; Compound Showed Little Inhibitory Effect
same,inhibition,[8],Active
same,inhibition,[9],Active; Compound Showed Little Inhibitory Effect
same,Activity,MDA-MB-231 [10],inactive
same,Activity,[11],Non-toxic
same,inhibition,MDA-MB-231 [12],Active; Compound Showed Robust Inhibition Compared To Positive Control
same,inhibition,[13],Active
same,Activity,MDA-MB-231 [14],Dose-dependent-effect
same,Activity,[15],Non-toxic
same,inhibition,BT-549 [16],Active; Compound Showed Robust Inhibition Compared To Positive Control
same,Activity,[17],Non-toxic
same,Activity,MDA-MB-231 [18],Dose-dependent-effect
same,Activity,[19],Non-toxic
same,inhibition,[20],Time-dependent-effect
same,Activity,MDA-MB-231 [21],inactive
same,inhibition,[22],Time-dependent-effect
same,Activity,MDA-MB-231 [23],Dose-dependent-effect
same,inhibition,BT-549 [24],Dose-dependent-effect
